Measurements published in patent US6517856B1, “Insecticide resistance assay” (priority 1998, dated 2003).

Tested on: Heliothis virescens neonates
Experiment: Feeding disruption bioassay on meal pads and diet cylinders (toxin incorporation, diet comparison)
Assay type: in vivo
Settings: for percentage of the population producing >5 fecal pellets: Hv Washington neonates, 0.04 μg MVP per ml diet, 24 h
Method: Feeding disruption bioassays follow the method Examples 1-9. Bioassay diets contain 20 mg of the dye Trypan Blue (Direct Blue 14; Matheson Coleman and Bell, Norwood, Ohio) per 100 ml of diet. The blue dye serves as a marker of fecal origin, with only larvae feeding on blue diet producing blue feces. All bioassay results were taken from two replicates consisting of 24 insects per replicate. Dead larvae (defined as no movement for 30 s after prodding with a blunt probe) at the assay endpoint (24 h) were discarded and not included in the results in order to avoid interpreting mortality as a non-feeding assay response. Assays were conducted in clear 8-well microtiter plate strips (Nalge Nunc Int., Napersville, Ill.). Strip caps were separated with a scalpel to allow individual removal, facilitating observation of individual wells while not allowing neighboring larvae to escape. A #3 insect pin was used to puncture each cap twice, which permitted ventilation in order to reduce condensation within wells and provide larvae with air.
The original bioassay method was modified by substituting 100 μl meal pads (diameter=6 mm) for fresh diets. Except where noted, toxins were incorporated into the meal pads by hydrating with aqueous solutions containing appropriate concentrations of the B. thuringiensis CryIAc formulation MVP (Mycogen, San Diego, Calif.). Serial MVP dilutions were used in each assay, with dilution series for each replicate of a treatment made on different days. Hydration of 100 μl meal pads was by pipetting two 40 μl aliquots (water volume=80 μl) in order to prevent pads from floating in the wells, as discussed above. Lyophilized diet cylinders (400 μl) were hydrated to original wet weight as previously described with an aqueous MVP dilution, resulting in a final concentration of 0.04 μg MVP per ml diet. After 1 h, cylinders were divided into 3 sections with a scalpel and individual sections were placed in 8-well microtiter strips, 1 section per well. The feeding disruption bioassay was then used to assess the diffusion of MVP through the cylinder using one larva per cylinder section. All bioassay concentrations reported are final diet concentrations, and not those of solutions used to hydrate meal pads.

CryIAc: Bacillus thuringiensis CryIAc δ-endotoxin, commercial formulation MVP (Mycogen), >98.0% δ endotoxin
percentage of the population producing >5 fecal pellets (100 μl meal pads): 10.4%
percentage of the population producing >5 fecal pellets (400 μl cylinder, bottom section): 6.4%
percentage of the population producing >5 fecal pellets (400 μl cylinder, middle section): 4.2%
percentage of the population producing >5 fecal pellets (400 μl cylinder, top section): 6.3%
stability in diet during the lyophilization process (judged by Hv 97 bioassay, 0.04 μg MVP per ml diet incorporated before lyophilization): apparently stable
